According to patent publication US20220249540A1, “INHALABLE COMPOSITION COMPROMISING CYCLODEXTRIN FOR USE IN THE TREATMENT OF NASAL INFLAMMATIONS” (AQUILON PHARMACEUTICALS SA, priority 2019, published 2022):

What was measured:
[1] = tested on: goblet cells in nasal mucosa tissue; experiment: goblet cells in nasal mucosa tissue of Ovalbumin-sensitized mice (PAS staining); format: in vivo, BALB/c mice; details: 50 mM in PBS by aerosolization 360 min before each OVA inhalation, Day 22 to 98; control group 50%
Experimental: Eight male and female BALB/c mice (6-8 weeks of age at the beginning of the protocol) were sensitized with Ovalbulmin (OVA) on D1 and D11 by intraperitoneal (i.p.) injection (10 μg grade V OVA diluted in 200 μl PBS), followed by OVA aerosols (10% grade Ill OVA dissolved in PBS buffer −50 ml were aerosolized with ultrasonic nebulizer during 30 minutes in a 30×20×15 cm Plexiglas exposure box where the animals were authorized to breathe and move normally). Aerosol administration was performed 360 min after i.n. treatments with Placebo or hydroxypropyl-gamma-cyclodextrin (HP-gamma-CD) during even weeks from days 22 to 98 (5 days/even week).
Mice were treated from Day 22 to Day 98 (5 days per week even week) with PBS (8 mice in control group) or with hydroxypropyl-gamma-cyclodextrin 50 mM diluted in PBS (8 mice in treated group) by aeorosolization (50 ml were aerosolized during 30 minutes in a Plexiglas exposure box where the animals were authorized to breathe and move normally) 360 min before each OVA inhalation.
On Day 99, the animals were sacrificed. […]
Numbers of goblet cells were counted using digitalized images of histological slides. Three hundred epithelial cells were counted at random and the percentage of positive cells for PAS staining (Goblet cells) was established relative to cells negative for PAS staining.

Wistar rats = experiment: two-week Dose-Range-Finding (DRF) Inhalation Study, histopathology of the nasal cavities; format: in vivo; details: for Normal (number of animals with normal nasal cavity histopathology): 3 examined
Experimental: Hydroxypropylbetacyclodextrin (HPBCD) was administered during two-weeks in a Dose-Range-Finding (DRF) Inhalation Study to Wistar rats in three different delivered doses: • low of 20 mg/kg/day and a target atmosphere concentration of 0.3 mg/L, • medium of 60 mg/kg/day and a target atmosphere concentration of 0.9 mg/L, and • […] to each three male and three non-pregnant female rats.
A control group which received control vehicle in the form of citrate buffer was provided with three male and three non-pregnant female rats. After terminal euthanasia, the nasal cavity was removed. Nasal cavities were embedded in paraffin wax, sections were cut at 4-6 μm by microtome and transferred to slides. Tissue sections were stained with haematoxylin-eosin/phloxine and examined by light microscope. Full histopathology of the nasal cavities, as well as the other organs of the respiratory tract, was performed in each group and is shown in FIG. 1. 4 levels of the nasal cavities were examined, among which 1 level included the nasopharyngeal duct and Nasal Associated Lymphoid Tissue (NALT).
Nasal cavities analyzed by histopathology were normal at all exposure levels of HPBCD.

Compound | % of goblet cells in nasal mucosa tissue [1] [%] | Normal (number of animals with normal nasal cavity histopathology) (Wistar rats; Female, High dosage (180 mg/kg/day)) | Normal (number of animals with normal nasal cavity histopathology) (Wistar rats; Female, Low dosage (20 mg/kg/day)) | Normal (number of animals with normal nasal cavity histopathology) (Wistar rats; Female, Mid dosage (60 mg/kg/day)) | Normal (number of animals with normal nasal cavity histopathology) (Wistar rats; Male, High dosage (180 mg/kg/day)) | Normal (number of animals with normal nasal cavity histopathology) (Wistar rats; Male, Low dosage (20 mg/kg/day)) | Normal (number of animals with normal nasal cavity histopathology) (Wistar rats; Male, Mid dosage (60 mg/kg/day)) | Nasal cavities analyzed by histopathology (Wistar rats; all exposure levels (20, 60, 180 mg/kg/day), nose-only inhalation, 90 min/day, 14 days)
2-hydroxypropyl-γ-cyclodextrin [Hydroxypropyl-gamma-cyclodextrin] | 20 |  |  |  |  |  |  | 
CC(O)COC[C@H]1O[C@@H]2O[C@H]3[C@H](O)[C@@H](O)[C@@H](O[C@H]4[C@H](O)[C@@H](O)[C@@H](O[C@H]5[C@H](O)[C@@H](O)[C@@H](O[C@H]6[C@H](O)[C@@H](O)[C@@H](O[C@H]7[C@H](O)[C@@H](O)[C@@H](O[C@H]8[C@H](O)[C@@H](O)[C@@H](O[C@H]1[C@H](O)[C@H]2O)O[C@@H]8COCC(C)O)O[C@@H]7COCC(C)O)O[C@@H]6COCC(C)O)O[C@@H]5COCC(C)O)O[C@@H]4COCC(C)O)O[C@@H]3COCC(C)O (stereo partly drawn) [HPBCD, 2-hydroxypropyl-beta-cyclodextrin] |  | 3 | 3 | 3 | 3 | 3 | 3 | normal
